# Measurements: patent publication US20090017042A1, “PROCESS FOR THE DETERMINATION OF THE PRIMARY STRUCTURE OF THE MESSENGER RNA CODING FOR THE HUMAN RECOMBINANT ENDOOLIGOPEPTIDASE A (HEOPA) [AF217798]” (priority 2002, published 2009)
# Where “and” joins values, the source holds several entries; their conditions need not be identical. Equal entries are not always repeated.
# Legend:
# [1] = biological target: T1, rEOPA (recombinant endooligopeptidase A) (Homo sapiens, UniProt Q9GZM8); settings: state of the art; cited from earlier work
# T1 construct: poly-histidine tag or anchor protein (e.g. GST) (N, cleaved yes); made in house; host or cells: Escherichia coli (DH5alpha, BL21(DE3) or similar), vector e.g. pProEx-HTc
# T1 sequence (Q9GZM8 1-345): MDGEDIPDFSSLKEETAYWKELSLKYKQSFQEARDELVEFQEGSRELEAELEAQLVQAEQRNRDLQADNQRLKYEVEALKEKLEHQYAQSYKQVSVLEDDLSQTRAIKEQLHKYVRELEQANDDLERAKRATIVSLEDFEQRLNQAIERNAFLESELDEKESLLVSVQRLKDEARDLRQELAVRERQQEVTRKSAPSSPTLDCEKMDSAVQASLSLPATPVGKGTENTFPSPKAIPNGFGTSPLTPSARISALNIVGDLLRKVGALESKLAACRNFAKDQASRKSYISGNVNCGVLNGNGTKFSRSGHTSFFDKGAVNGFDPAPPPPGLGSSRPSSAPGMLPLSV
# [2] = biological target: T1, rEOPA (recombinant endooligopeptidase A); experiment: Inhibition of the catalytic activity of recombinant EOPA (kinetic assay, quenched fluorescence peptide substrate or HPLC); assay type: biochemical; settings: for Ki: rEOPA
# Text: Polyclonal antibodies were generated in rats, mice and rabbits, using the purified natural EOPA or the active recombinant EOPA, expressed in bacteria, specifically in Escherichia coli, for the immunization. Male Balb-C mice, 7 to 8 weeks old, and weighing between 18 and 22 g were immunized with purified natural human EOPA, or catalytically active recombinant enzyme. For each of the four immunizations, 2.mμ.g of the purified protein or 3.mμ.g of the recombinant protein, absorbed on aluminum hydroxide [Al(OH)3] were injected intradermically, in weekly intervals. Blood samples were collected one week after the last immunization, and the serum was stored at −20° C. The antiserum titer was evaluated by ELISA, using the appropriate antigen. The anti-catalytic activity of the obtained antiserum was evaluated by HPLC or fluorimetrically, using the quenched fluorescent peptides substrates. Before use, the antiserum was pre-heated at 55° C., for 5 minutes, in order to eliminate any contaminating peptidase activity. […] Using this antibody, it was possible to discriminate the activity of the EOPA from functionally similar, but not homologous enzymes, such as the TOP and the NL, which are also present in animal tissues and cells lineages.
# Kinetic assays using natural peptide substrates like bradykinin, neurotensin and opioid peptides, composed by 9 to 13 amino acid residues, were essential for the discovery and characterization of the EOPA in our laboratory (see the summary of this literature in Camargo et al., 1994). Since 1990, we have developed peptide substrates derived from natural substrates with quenched fluorescence, standardizing the characterization of this enzyme, simplifying and reducing the costs, and making the characterization of the kinetic properties of the EOPA more reliable (Juliano et al., 1990). The peptide substrates with quenched fluorescence (qf) used have the radical Abz (ortho-aminobenzoic acid) at the amino terminus of the peptide, and the EDDnp [N-(2,4-dinitrophenyl)ethylenediamine] at the carboxyl terminus of the peptide. […]
# [3] = biological target: thimet oligopeptidase (TOP) (Homo sapiens, UniProt P52888); settings: cited from earlier work
# Chain of thimet oligopeptidase (TOP) (P52888 whole entry, species assumed): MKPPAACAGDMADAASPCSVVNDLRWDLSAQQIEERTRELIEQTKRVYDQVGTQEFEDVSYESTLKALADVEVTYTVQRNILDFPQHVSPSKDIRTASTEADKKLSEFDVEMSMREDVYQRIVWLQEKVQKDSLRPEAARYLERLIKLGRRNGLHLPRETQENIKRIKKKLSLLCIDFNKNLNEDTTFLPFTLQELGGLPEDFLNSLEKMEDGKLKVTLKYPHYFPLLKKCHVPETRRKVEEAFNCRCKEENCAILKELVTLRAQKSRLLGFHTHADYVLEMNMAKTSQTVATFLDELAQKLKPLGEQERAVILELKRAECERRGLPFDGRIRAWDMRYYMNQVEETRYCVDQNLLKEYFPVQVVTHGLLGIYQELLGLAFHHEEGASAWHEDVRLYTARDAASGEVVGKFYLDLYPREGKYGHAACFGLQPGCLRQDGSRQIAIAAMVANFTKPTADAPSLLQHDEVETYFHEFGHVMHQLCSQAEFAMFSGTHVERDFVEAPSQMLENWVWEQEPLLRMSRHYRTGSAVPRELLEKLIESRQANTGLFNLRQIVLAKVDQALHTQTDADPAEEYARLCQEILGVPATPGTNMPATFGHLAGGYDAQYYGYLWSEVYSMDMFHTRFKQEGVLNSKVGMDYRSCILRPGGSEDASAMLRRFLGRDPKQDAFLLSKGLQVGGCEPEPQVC
# neurolysin (NL) = neurolysin (NL) (Homo sapiens, UniProt Q9BYT8); experiment: Inhibition of neurolysin; assay type: biochemical
# Chain of neurolysin (NL) (Q9BYT8 38-704): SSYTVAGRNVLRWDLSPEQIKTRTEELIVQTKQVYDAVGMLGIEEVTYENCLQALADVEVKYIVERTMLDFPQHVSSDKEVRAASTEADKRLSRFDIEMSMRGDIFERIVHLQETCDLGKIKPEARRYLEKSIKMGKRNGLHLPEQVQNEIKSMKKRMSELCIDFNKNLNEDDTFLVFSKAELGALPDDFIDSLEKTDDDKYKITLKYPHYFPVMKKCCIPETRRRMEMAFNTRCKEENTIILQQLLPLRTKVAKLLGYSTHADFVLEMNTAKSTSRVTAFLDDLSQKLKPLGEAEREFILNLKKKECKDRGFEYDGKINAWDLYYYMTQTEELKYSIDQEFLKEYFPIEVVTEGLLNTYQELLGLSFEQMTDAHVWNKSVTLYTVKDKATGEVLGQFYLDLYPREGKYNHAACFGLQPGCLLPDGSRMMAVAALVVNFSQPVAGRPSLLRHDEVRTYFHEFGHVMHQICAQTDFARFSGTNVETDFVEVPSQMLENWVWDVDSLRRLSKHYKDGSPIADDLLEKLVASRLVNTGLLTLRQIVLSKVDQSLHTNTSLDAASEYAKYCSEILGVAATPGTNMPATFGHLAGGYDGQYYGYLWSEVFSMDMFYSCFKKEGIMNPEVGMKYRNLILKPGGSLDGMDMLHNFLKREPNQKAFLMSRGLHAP
# [4] = test system: neuronal precursor cells from embryonic stem cells (USP-1 lineage); experiment: Treatment of neuronal precursor cells differentiated from embryonic stem cells with EOPA inhibitor; assay type: cell-based; settings: neuronal precursor cells treated with the inhibitor
# Protocol: The undifferentiated embryonic stem cells (USP-1 lineage) were cultured in medium containing: DMEM, supplemented with 15% of bovine fetal serum, […] of penicillin/streptomycin and 2 mM of L-glutamine, 1% of non-essential amino acids, 10^−4 M of monothioglicerol, and LIF (Leukemia Inhibitory Factor), in a final concentration of 1,000 units/ml. All the undifferentiated stem cells culture was maintained over a primary culture of previously irradiated murine fibroblasts (Neo Mef2). The differentiation was done after the formation of the embryoid bodies, where 750 cells were maintained in 20 μl of the culture medium drops over a Petri dish, during four days at 37° C., under 5% carbonic gas (during this period the cells form the cellular aggregates known as embryoid bodies). […] After completing the differentiation of the stem cells, the differentiated cells were counted and photographed using a confocal microscopy. A population of cells differentiated into neurons was obtained following the protocol described above, and the influence of the inhibition of the EOPA catalytic activity during the differentiation and maturation process of these neurons was analyzed after the treatment of these cells with the inhibitor JA2.
Structure (SMILES),effect of thiol agents on EOPA activity (kinetic assays) [1],Ki [2],also measured
"O[C@H](CS)[C@H](O)CS (racemic) [dithiothreitol (DTT), dithiothreitol]",activated,–,–
O=C(O)c1cc(SSc2ccc([N+](=O)[O-])c(C(=O)O)c2)ccc1[N+](=O)[O-] [5′-dithio-bis-(2-nitrobenzoic acid)],inhibited,–,–
O=C(O)CN(CCN(CC(=O)O)CC(=O)O)CC(=O)O [EDTA],–,–,sensitivity of EOPA to metalloprotease-directed agents [2]: insensible
C[C@H](NC(CCc1ccccc1)C(=O)O)C(=O)NC(C)(C)C(=O)N[C@@H](Cc1ccc(O)cc1)C(=O)Nc1ccc(C(=O)O)cc1 (stereo partly shown) [JA2],–,~17 nM and 17 nM,Ki [3]: 23 nM; Ki (neurolysin (NL)): > 200 nM; differentiation of the cells [4]: abnormal differentiation of the cells; neurites formation [4]: inhibition of the neurites formation
C[C@H](NC(=O)[C@H](C)NC(CCc1ccccc1)C(=O)O)C(=O)N[C@@H](Cc1ccc(O)cc1)C(=O)Nc1ccc(C(=O)O)cc1 (stereo partly shown) [cFP],–,~17 nM,–
"O=C(O)c1cc[c]([Hg][Cl])cc1 [p-chloromercuribenzoate (PCMB), p-chloromercuribenzoate]",inhibited,–,–
